In patent US12077503B2, “Substituted cyclic amides and their use as herbicides” (FMC CORPORATION, priority 2015, dated 2024):

Legend:
Experiment in all cases: Test C preemergence
Assay type in all cases: in vivo
[1] = system: Galium (catchweed bedstraw, Galium aparine); conditions: for Plant response rating, Galium: scale 0 to 100, 0 no effect, 100 complete control
Procedure, shortened: (§1)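 Herbicidal effect, applied preemergence to sown seeds or postemergence to 1- to 4-leaf plants, was scored visually 13 to 15 d after application, 0 to 100 versus controls.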

[2] = system: barnyardgrass (Echinochloa crus-galli); conditions: for Plant response rating, Barnyardgrass: scale 0 to 100, 0 no effect, 100 complete control
Procedure, shortened: as §1

[3] = system: blackgrass (Alopecurus myosuroides); conditions: for Plant response rating, Blackgrass: scale 0 to 100, 0 no effect, 100 complete control
Procedure, shortened: as §1

corn (Zea mays) = conditions: for Plant response rating, Corn: scale 0 to 100, 0 no effect, 100 complete control
Procedure, shortened: as §1

[4] = system: crabgrass, large (large crabgrass, Digitaria sanguinalis); conditions: for Plant response rating, Crabgrass, Large: scale 0 to 100, 0 no effect, 100 complete control
Procedure, shortened: as §1

[5] = system: foxtail, giant (giant foxtail, Setaria faberii); conditions: for Plant response rating, Foxtail, Giant: scale 0 to 100, 0 no effect, 100 complete control
Procedure, shortened: as §1

[6] = system: johnsongrass (Sorghum halepense); conditions: for Plant response rating, Johnsongrass: scale 0 to 100, 0 no effect, 100 complete control
Procedure, shortened: as §1

[7] = system: lambsquarters (Chenopodium album); conditions: for Plant response rating, Lambsquarters: scale 0 to 100, 0 no effect, 100 complete control
Procedure, shortened: as §1

[8] = system: morningglory (Ipomoea coccinea); conditions: for Plant response rating, Morningglory: scale 0 to 100, 0 no effect, 100 complete control
Procedure, shortened: as §1

[9] = system: nutsedge, yellow (yellow nutsedge, Cyperus esculentus); conditions: for Plant response rating, Nutsedge, Yellow: scale 0 to 100, 0 no effect, 100 complete control
Procedure, shortened: as §1

[10] = system: oilseed rape (Brassica napus); conditions: for Plant response rating, Oilseed Rape: scale 0 to 100, 0 no effect, 100 complete control
Procedure, shortened: as §1

[11] = system: pigweed (Amaranthus retroflexus); conditions: for Plant response rating, Pigweed: scale 0 to 100, 0 no effect, 100 complete control
Procedure, shortened: as §1

[12] = system: ragweed (common ragweed, Ambrosia elatior); conditions: for Plant response rating, Ragweed: scale 0 to 100, 0 no effect, 100 complete control
Procedure, shortened: as §1

[13] = system: ryegrass, Italian (Italian ryegrass, Lolium multiflorum); conditions: for Plant response rating, Ryegrass, Italian: scale 0 to 100, 0 no effect, 100 complete control
Procedure, shortened: as §1

soybean (Glycine max) = conditions: for Plant response rating, Soybean: scale 0 to 100, 0 no effect, 100 complete control
Procedure, shortened: as §1

[14] = system: velvetleaf (Abutilon theophrasti); conditions: for Plant response rating, Velvetleaf: scale 0 to 100, 0 no effect, 100 complete control
Procedure, shortened: as §1

[15] = system: waterhemp (common waterhemp, Amaranthus rudis); conditions: for Plant response rating, Waterhemp: scale 0 to 100, 0 no effect, 100 complete control
Procedure, shortened: as §1

[16] = system: wheat (winter wheat, Triticum aestivum); conditions: for Plant response rating, Wheat: scale 0 to 100, 0 no effect, 100 complete control
Procedure, shortened: as §1

[17] = 31 g ai/ha, 0 is no effect, 100 is complete control

Q: `Cc1ccc(C2CN(C)C(=O)C2C(=O)Nc2ccccc2S(C)(=O)=O)cc1` (stereo not drawn) [Compound 663] was tested. Which “Plant response rating (scale of 0 to 100), Galium” value [1, 17] did it give?
A: 90

Q: And the “Plant response rating, Galium” value ([1]; 62 g ai/ha)?
A: 90

Q: What about the “Plant response rating, Galium” value ([1]; 125 g ai/ha) of the same compound?
A: 85

Q: What about the “Plant response rating, Galium” value ([1]; 250 g ai/ha) of the same compound?
A: 90

Q: And the “Plant response rating (scale of 0 to 100), Barnyardgrass” value [2, 17]?
A: 95

Q: And the “Plant response rating, Barnyardgrass” value ([2]; 62 g ai/ha)?
A: 90

Q: And the “Plant response rating, Barnyardgrass” value ([2]; 125 g ai/ha)?
A: 98

Q: And the “Plant response rating, Barnyardgrass” value ([2]; 250 g ai/ha)?
A: 100

Q: And the “Plant response rating (scale of 0 to 100), Blackgrass” value [3, 17]?
A: 20

Q: What about the “Plant response rating, Blackgrass” value ([3]; 62 g ai/ha) of the same compound?
A: 60

Q: And the “Plant response rating, Blackgrass” value ([3]; 125 g ai/ha)?
A: 85

Q: What about the “Plant response rating, Blackgrass” value ([3]; 250 g ai/ha) of the same compound?
A: 95

Q: And the “Plant response rating (scale of 0 to 100), Corn” value (corn (Zea mays); [17])?
A: 0

Q: And the “Plant response rating, Corn” value (corn (Zea mays); 62 g ai/ha)?
A: 10

Q: What about the “Plant response rating, Corn” value (corn (Zea mays); 125 g ai/ha) of the same compound?
A: 20

Q: What about the “Plant response rating, Corn” value (corn (Zea mays); 250 g ai/ha) of the same compound?
A: 60

Q: What about the “Plant response rating (scale of 0 to 100), Crabgrass, Large” value [4, 17] of the same compound?
A: 95

Q: And the “Plant response rating, Crabgrass, Large” value ([4]; 62 g ai/ha)?
A: 98

Q: And the “Plant response rating, Crabgrass, Large” value ([4]; 125 g ai/ha)?
A: 100

Q: What about the “Plant response rating, Crabgrass, Large” value ([4]; 250 g ai/ha) of the same compound?
A: 100

Q: What about the “Plant response rating (scale of 0 to 100), Foxtail, Giant” value [5, 17] of the same compound?
A: 95

Q: And the “Plant response rating, Foxtail, Giant” value ([5]; 62 g ai/ha)?
A: 95

Q: What about the “Plant response rating, Foxtail, Giant” value ([5]; 125 g ai/ha) of the same compound?
A: 98

Q: What about the “Plant response rating, Foxtail, Giant” value ([5]; 250 g ai/ha) of the same compound?
A: 100

Q: What about the “Plant response rating (scale of 0 to 100), Johnsongrass” value [6, 17] of the same compound?
A: 0

Q: What about the “Plant response rating, Johnsongrass” value ([6]; 62 g ai/ha) of the same compound?
A: 10

Q: And the “Plant response rating, Johnsongrass” value ([6]; 125 g ai/ha)?
A: 20

Q: What about the “Plant response rating, Johnsongrass” value ([6]; 250 g ai/ha) of the same compound?
A: 40

Q: What about the “Plant response rating (scale of 0 to 100), Lambsquarters” value [7, 17] of the same compound?
A: 70

Q: And the “Plant response rating, Lambsquarters” value ([7]; 62 g ai/ha)?
A: 60

Q: And the “Plant response rating, Lambsquarters” value ([7]; 125 g ai/ha)?
A: 65

Q: And the “Plant response rating, Lambsquarters” value ([7]; 250 g ai/ha)?
A: 85

Q: And the “Plant response rating (scale of 0 to 100), Morningglory” value [8, 17]?
A: 0

Q: And the “Plant response rating, Morningglory” value ([8]; 62 g ai/ha)?
A: 35

Q: What about the “Plant response rating, Morningglory” value ([8]; 125 g ai/ha) of the same compound?
A: 30

Q: And the “Plant response rating, Morningglory” value ([8]; 250 g ai/ha)?
A: 40

Q: And the “Plant response rating (scale of 0 to 100), Nutsedge, Yellow” value [9, 17]?
A: 0

Q: And the “Plant response rating, Nutsedge, Yellow” value ([9]; 62 g ai/ha)?
A: 0

Q: What about the “Plant response rating, Nutsedge, Yellow” value ([9]; 125 g ai/ha) of the same compound?
A: 0

Q: What about the “Plant response rating, Nutsedge, Yellow” value ([9]; 250 g ai/ha) of the same compound?
A: 50

Q: What about the “Plant response rating (scale of 0 to 100), Oilseed Rape” value [10, 17] of the same compound?
A: 30

Q: What about the “Plant response rating, Oilseed Rape” value ([10]; 62 g ai/ha) of the same compound?
A: 20

Q: What about the “Plant response rating, Oilseed Rape” value ([10]; 125 g ai/ha) of the same compound?
A: 65

Q: And the “Plant response rating, Oilseed Rape” value ([10]; 250 g ai/ha)?
A: 80

Q: What about the “Plant response rating (scale of 0 to 100), Pigweed” value [11, 17] of the same compound?
A: 70

Q: What about the “Plant response rating, Pigweed” value ([11]; 62 g ai/ha) of the same compound?
A: 60

Q: And the “Plant response rating, Pigweed” value ([11]; 125 g ai/ha)?
A: 70

Q: And the “Plant response rating, Pigweed” value ([11]; 250 g ai/ha)?
A: 75

Q: And the “Plant response rating (scale of 0 to 100), Ragweed” value [12, 17]?
A: 50

Q: What about the “Plant response rating, Ragweed” value ([12]; 62 g ai/ha) of the same compound?
A: 55

Q: What about the “Plant response rating, Ragweed” value ([12]; 125 g ai/ha) of the same compound?
A: 70

Q: And the “Plant response rating, Ragweed” value ([12]; 250 g ai/ha)?
A: 85

Q: And the “Plant response rating (scale of 0 to 100), Ryegrass, Italian” value [13, 17]?
A: 10

Q: What about the “Plant response rating, Ryegrass, Italian” value ([13]; 62 g ai/ha) of the same compound?
A: 70

Q: And the “Plant response rating, Ryegrass, Italian” value ([13]; 125 g ai/ha)?
A: 50

Q: And the “Plant response rating, Ryegrass, Italian” value ([13]; 250 g ai/ha)?
A: 75

Q: What about the “Plant response rating (scale of 0 to 100), Soybean” value (soybean (Glycine max); [17]) of the same compound?
A: 0

Q: And the “Plant response rating, Soybean” value (soybean (Glycine max); 62 g ai/ha)?
A: 10

Q: And the “Plant response rating, Soybean” value (soybean (Glycine max); 125 g ai/ha)?
A: 0

Q: What about the “Plant response rating, Soybean” value (soybean (Glycine max); 250 g ai/ha) of the same compound?
A: 0

Q: What about the “Plant response rating (scale of 0 to 100), Velvetleaf” value [14, 17] of the same compound?
A: 5

Q: What about the “Plant response rating, Velvetleaf” value ([14]; 62 g ai/ha) of the same compound?
A: 15

Q: What about the “Plant response rating, Velvetleaf” value ([14]; 125 g ai/ha) of the same compound?
A: 30

Q: And the “Plant response rating, Velvetleaf” value ([14]; 250 g ai/ha)?
A: 55

Q: What about the “Plant response rating (scale of 0 to 100), Waterhemp” value [15, 17] of the same compound?
A: 50

Q: What about the “Plant response rating, Waterhemp” value ([15]; 62 g ai/ha) of the same compound?
A: 60

Q: And the “Plant response rating, Waterhemp” value ([15]; 125 g ai/ha)?
A: 85

Q: And the “Plant response rating, Waterhemp” value ([15]; 250 g ai/ha)?
A: 90

Q: What about the “Plant response rating (scale of 0 to 100), Wheat” value [16, 17] of the same compound?
A: 0

Q: And the “Plant response rating, Wheat” value ([16]; 62 g ai/ha)?
A: 50

Q: And the “Plant response rating, Wheat” value ([16]; 125 g ai/ha)?
A: 55

Q: What about the “Plant response rating, Wheat” value ([16]; 250 g ai/ha) of the same compound?
A: 90
